Experimental data reported in patent US10000454B2, “Antidiabetic tricyclic compounds” (Merck Sharp & Dohme Corp., priority 2014, dated 2018).

How the values were obtained:
[1] = molecular target: T1, Human GPR40 (Homo sapiens, UniProt O14842); test: Inositol Phosphate Turnover (IP1) Assay; type: cell-based; parameters: expressed in transfected cells; host or cells: HEK cells (stably expressing the aequorin reporter); conditions: HEK cells stably expressing human GPR40, CisBio IP-One kit
Procedure: (§1) Human and mouse GPR40 stable cell-lines were generated in CHO cells stably expressing NFAT BLA (Beta-lactamase). A human GPR40 stable cell-line was generated in HER cells stably expressing the aequorin expressing reporter. The expression plasmids were transfected using lipofectamine (Life Technologies) following manufacturer's instructions. Stable cell-lines were generated following drug selection.
The assay is performed in 384-well format. HEK cells stably expressing human GPR40 are plated at 15,000 cells per well in growth medium (DMEM/10% fetal calf serum). Cell plates are then incubated 16 hours at 37 degrees in a 5% CO2 incubator.
Measurement of Inositol Phosphate Turnover (IP1) is performed using the CisBio IP-One kit (Part number 62IPAPEB). After the 16 hour incubation, the cells are washed with HEPES buffer and 10 ul of stimulation buffer (prepared as described in the kit) is added to each well. In a separate plate, compounds are diluted in DMSO (400-fold over the final concentration in the assay well) and 25 nl is acoustically transferred to the appropriate well in the assay cell plate. The plates are then incubated for 60 minutes at 37 degrees. 10 ul of detection buffer (also prepared as described in the IP-One kit) is added to each well and the plates are incubated for 60 minutes in the dark. The plates are then read in a Perkin Elmer EnVision or equivalent reader able to measure FRET. Fluorescent ratio of emission at 665 and 620 nm is then converted to IP1 concentration by back calculating from an IP1 standard curve prepared at the time of the assay.

[2] = molecular target: T1, Human GPR40; test: FLIPR assay, agonist-induced calcium mobilization; type: cell-based; parameters: expressed in transfected cells; conditions: GPR40/CHO NFAT BLA cells
Procedure: as §1
FLIPR (Fluorimetric Imaging Plate Reader, Molecular Devices) assays were performed to measure agonist-induced calcium mobilization of the stable clones. For the FLIPR assay, one day before assay, GPR40/CHO NFAT BLA cells were seeded into black-wall-clear-bottom 384-well plates (Costar) at 1.4×10e4 cells/20 μL medium/well. The cells were incubated with 20 μl/well of the assay buffer (HMS, 0.1% BSA, 20 mM HEPES, 2.5 mM probenecid, pH 7.4) containing 8 μM fluo-4, AM, 0.08% pluronic acid at room temperature for 100 minutes. Fluorescence output was measured using FLIPR. Compounds were dissolved in DMSO and diluted to desired concentrations with assay buffer. 13.3 μL/well of compound solution was added.

T1 sequence (O14842 whole entry): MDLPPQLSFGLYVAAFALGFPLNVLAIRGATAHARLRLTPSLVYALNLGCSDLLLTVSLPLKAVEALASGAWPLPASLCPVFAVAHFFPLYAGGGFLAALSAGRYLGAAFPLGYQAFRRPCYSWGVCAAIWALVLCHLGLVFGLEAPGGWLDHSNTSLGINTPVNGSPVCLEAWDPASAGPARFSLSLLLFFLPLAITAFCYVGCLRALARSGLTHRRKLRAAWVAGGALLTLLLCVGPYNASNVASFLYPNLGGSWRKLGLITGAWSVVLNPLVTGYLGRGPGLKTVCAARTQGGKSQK

Row | Structure (SMILES) | EC50 [1] [nM] | EC50 [2] [nM]
1 | O=C1CC(c2ccccc2C(F)(F)F)c2cc(COc3cc4c(cn3)[C@H]3[C@@H](C4)[C@@H]3C(=O)O)ccc21 (stereo partly drawn) [Example 2, (5aR,6S,6aS)-3-((1-oxo-3-(2-(trifluoromethyl)-phenyl)-2,3-dihydro-1H-inden-5-yl)methoxy)-5,5a,6,6a-tetrahydro-cyclopropa[4,5]cyclopenta [1,2-c]pyridine-6-carboxylic acid] | 47.4 | 50.5
2 | CC1(C)CC(c2ccccc2C(F)(F)F)c2cc(COc3cc4c(cn3)[C@H]3[C@@H](C4)[C@@H]3C(=O)O)ccc21 (stereo partly drawn) [Example 3, (5aR,6S,6aS)-3-((1,1-dimethyl-3-(2-(trifluoromethyl)phenyl)-2,3-dihydro-1H-inden-5-yl)methoxy)-5,5a,6,6a-tetrahydrocyclopropa[4,5]cyclopenta[1,2-c]pyridine-6-carboxylic acid] | 769 | 9.28
3 | CC1(C)C=C(c2ccccc2C(F)(F)F)c2cc(COc3cc4c(cn3)[C@H]3[C@@H](C4)[C@@H]3C(=O)O)ccc21 [Example 4] | 18 | 13.7
4 | CC1CC(c2ccccc2C(F)(F)F)c2cc(COc3cc4c(cn3)[C@H]3[C@@H](C4)[C@@H]3C(=O)O)ccc21 (stereo partly drawn) [Example 5, (5aR,6S,6aS)-3-((1-methyl-3-(2-(trifluoromethyl)phenyl)-2,3-dihydro-1H-inden-5-yl)methoxy)-5,5a,6,6a-tetrahydrocyclopropa[4,5]cyclopenta[1,2-c]pyridine-6-carboxylic acid] | 21.6 | 20.8
5 | O=C(O)[C@H]1[C@@H]2Cc3cc(OCc4ccc5c(c4)C(c4ccccc4C(F)(F)F)CC54CCC4)ncc3[C@@H]21 (stereo partly drawn) [Example 6, (5aR,6S,6aS)-3-((3′-(2-(trifluoromethyl)phenyl)-2′,3′-dihydrospiro[cyclobutane-1,1′-inden]-5′-yl)methoxy)-5,5a,6,6a-tetrahydrocyclopropa[4,5]cyclopenta[1,2-c]pyridine-6-carboxylic acid] | 22.6 | 22.9
6 | O=C(O)[C@H]1[C@@H]2Cc3cc(OCc4ccc5c(c4)C(c4ccccc4C(F)(F)F)CC54COC4)ncc3[C@@H]21 (stereo partly drawn) [Example 7, (5aR,6S,6aS)-3-((3-(2-(trifluoromethyl)phenyl)-2,3-dihydrospiro[indene-1,3′-oxetan]-5-yl)methoxy)-5,5a,6,6a-tetrahydrocyclopropa[4,5]cyclopenta[1,2-c]pyridine-6-carboxylic acid] | 35.3 | 32.9
7 | CC1(C)OCC2(CO1)CC(c1ccccc1C(F)(F)F)c1cc(COc3cc4c(cn3)[C@H]3[C@@H](C4)[C@@H]3C(=O)O)ccc12 (stereo partly drawn) [Example 8, (5aR,6S,6aS)-3-((2,2-dimethyl-3′-(2-(trifluoromethyl)phenyl)-2′,3′-dihydrospiro[[1,3]dioxane-5,1′-inden]-5′-yl)methoxy)-5,5a,6,6a-tetrahydrocyclopropa[4,5]cyclopenta[1,2-c]pyridine-6-carboxylic acid] | 21.1 | 12.3
8 | CC1(C)CC(c2ccccc2)c2cc(COc3cc4c(cn3)[C@H]3[C@@H](C4)[C@@H]3C(=O)O)ccc21 (stereo partly drawn) [Example 9, (5aR,6S,6aS)-3-((1,1-dimethyl-3-phenyl-2,3-dihydro-1H-inden-5-yl)methoxy)-5,5a,6,6a-tetrahydrocyclopropa[4,5]cyclopenta[1,2-c]pyridine-6-carboxylic acid] | 22.4 | 16.9
9 | CC1(C)CC(c2c(F)cccc2F)c2cc(COc3cc4c(cn3)[C@H]3[C@@H](C4)[C@@H]3C(=O)O)ccc21 (stereo partly drawn) [Example 10, (5aR,6S,6aS)-3-((3-(2,6-difluorophenyl)-1,1-dimethyl-2,3-dihydro-1H-inden-5-yl)methoxy)-5,5a,6,6a-tetrahydro-cyclopropa[4,5]cyclopenta [1,2-c]pyridine-6-carboxylic acid] | 38.9 | 4.9
10 | CC1(C)CC(c2ccccc2Cl)c2cc(COc3cc4c(cn3)[C@H]3[C@@H](C4)[C@@H]3C(=O)O)ccc21 (stereo partly drawn) [Example 11, (5aR,6S,6aS)-3-((3-(2-chlorophenyl)-1,1-dimethyl-2,3-dihydro-1H-inden-5-yl)methoxy)-5,5a,6,6a-tetrahydro-cyclopropa[4,5]cyclopenta [1,2-c]pyridine-6-carboxylic acid] | 35.1 | 17.8
11 | CC1(C)CC(c2ccccc2S(C)(=O)=O)c2cc(COc3cc4c(cn3)[C@H]3[C@@H](C4)[C@@H]3C(=O)O)ccc21 (stereo partly drawn) [Example 13, (5aR,6S,6aS)-3-((1,1-dimethyl-3-(2-(methyl-sulfonyl)phenyl)-2,3-dihydro-1H-inden-5-yl)methoxy)-5,5a,6,6a-tetrahydrocyclopropa[4,5] cyclopenta[1,2-c]pyridine-6-carboxylic acid] | 40.6 | 22.6
12 | COc1ncccc1C1CC(C)(C)c2ccc(COc3cc4c(cn3)[C@H]3[C@@H](C4)[C@@H]3C(=O)O)cc21 (stereo partly drawn) [Example 14, (5aR,6S,6aS)-3-((3-(2-methoxypyridin-3-yl)-1,1-dimethyl-2,3-dihydro-1H-inden-5-yl)methoxy)-5,5a,6,6a-tetrahydro-cyclopropa[4,5]cyclopenta [1,2-c]pyridine-6-carboxylic acid] | 21.8 | 11.6
13 | COc1nccc(C)c1C1CC(C)(C)c2ccc(COc3cc4c(cn3)[C@H]3[C@@H](C4)[C@@H]3C(=O)O)cc21 (stereo partly drawn) [Example 15, (5aR,6S,6aS)-3-((3-(2-methoxy-4-methylpyridin-3-yl)-1,1-dimethyl-2,3-dihydro-1H-inden-5-yl)methoxy)-5,5a,6,6a-tetrahydrocyclopropa[4,5] cyclopenta[1,2-c]pyridine-6-carboxylic acid] | 7.77 | 8.6
14 | Cn1cnc2cccc(C3CC(C)(C)c4ccc(COc5cc6c(cn5)[C@H]5[C@@H](C6)[C@@H]5C(=O)O)cc43)c21 (stereo partly drawn) [Example 16, (5aR,6S,6aS)-3-((1,1-dimethyl-3-(1-methyl-1H-benzo[d]imidazol-7-yl)-2,3-dihydro-1H-inden-5-yl)methoxy)-5,5a,6,6a-tetrahydrocyclopropa[4,5] cyclopenta[1,2-c]pyridine-6-carboxylic acid] | 27.7 | 7.29
15 | CC1(C)CC(c2ccccc2F)c2cc(COc3cc4c(cn3)[C@H]3[C@@H](C4)[C@@H]3C(=O)O)ccc21 (stereo partly drawn) [Example 17, (5aR,6S,6aS)-3-((1,1-dimethyl-3-(2-fluorophenyl)-2,3-dihydro-1H-inden-5-yl)methoxy)-5,5a,6,6a-tetrahydrocyclopropa[4,5] cyclopenta[1,2-c]pyridine-6-carboxylic acid] | 43.7 | 21.7
16 | O=C(O)[C@H]1[C@@H]2Cc3cc(OCc4ccc5c(c4)C(c4ccccc4C(F)(F)F)CC5c4ccccc4)ncc3[C@@H]21 (stereo partly drawn) [Example 18, (5aR,6S,6aS)-3-((1-phenyl-3-(2-(trifluoromethyl)phenyl)-2,3-dihydro-1H-inden-5-yl)methoxy)-5,5a,6,6a-tetrahydrocyclopropa[4,5]cyclopenta[1,2-c]pyridine-6-carboxylic acid] | 24.6 | 13.2
17 | O=C(O)[C@H]1[C@@H]2Cc3cc(OCc4ccc5c(c4)C(c4ccccc4C(F)(F)F)CC5c4ccccc4)ncc3[C@@H]21 (stereo partly drawn) [Example 19, (5aR,6S,6aS)-3-((1-phenyl-3-(2-(trifluoromethyl)phenyl)-2,3-dihydro-1H-inden-5-yl)methoxy)-5,5a,6,6a-tetrahydrocyclopropa[4,5]cyclopenta[1,2-c]pyridine-6-carboxylic acid] | 17.5 | 15.5
18 | O=C(O)[C@H]1[C@@H]2Cc3cc(OCc4ccc5c(c4)C(O)(c4ccccc4C(F)(F)F)CC5)ccc3[C@@H]21 (stereo partly drawn) [Example 21, (1S,1aS,6aR)-4-((3-hydroxy-3-(2-(trifluoromethyl)phenyl)-2,3-dihydro-1H-inden-5-yl)methoxy)-1,1a,6,6a-tetrahydrocyclopropa[a]indene-1-carboxylic acid] | 16.6 | 17.7
19 | CC1(C)CC(c2ccncc2C(F)(F)F)c2cc(COc3cc4c(cn3)[C@H]3[C@@H](C4)[C@@H]3C(=O)O)c(F)cc21 (stereo partly shown) [Example 25] | 6.91 | 6.92
20 | CC1(C)CC(c2cccnc2C(F)(F)F)c2cc(COc3cc4c(cn3)[C@H]3[C@@H](C4)[C@@H]3C(=O)O)c(F)cc21 (stereo partly drawn) [Example 26, (5aR,6S,6aS)-3-((6-fluoro-1,1-dimethyl-3-(2-(trifluoromethyl)pyridin-3-yl)-2,3-dihydro-1H-inden-5-yl)methoxy)-5,5a,6,6a-tetrahydrocyclopropa [4,5]cyclopenta[1,2-c]pyridine-6-carboxylic acid] | 20.8 | 14.1
